Source: paper PMC8343220, “The selectivity of α‐adrenoceptor agonists for the human α1A, α1B, and α1D‐adrenoceptors” (Pharmacology Research & Perspectives, 2021)
Like-named read-outs stand apart in the source and are kept apart here. Values belong to the compound of their own block, whether it stands above or below them.

How the values were obtained:
[1] = biological target: T1, human α1B‐adrenoceptor (Homo sapiens, UniProt P35368); test: Intracellular free calcium mobilization, CHO‐α1B cells; format: cell-based
T1 construct: expressed in transfected cells; host or cells: CHO-K1
T1 sequence (P35368 1-520): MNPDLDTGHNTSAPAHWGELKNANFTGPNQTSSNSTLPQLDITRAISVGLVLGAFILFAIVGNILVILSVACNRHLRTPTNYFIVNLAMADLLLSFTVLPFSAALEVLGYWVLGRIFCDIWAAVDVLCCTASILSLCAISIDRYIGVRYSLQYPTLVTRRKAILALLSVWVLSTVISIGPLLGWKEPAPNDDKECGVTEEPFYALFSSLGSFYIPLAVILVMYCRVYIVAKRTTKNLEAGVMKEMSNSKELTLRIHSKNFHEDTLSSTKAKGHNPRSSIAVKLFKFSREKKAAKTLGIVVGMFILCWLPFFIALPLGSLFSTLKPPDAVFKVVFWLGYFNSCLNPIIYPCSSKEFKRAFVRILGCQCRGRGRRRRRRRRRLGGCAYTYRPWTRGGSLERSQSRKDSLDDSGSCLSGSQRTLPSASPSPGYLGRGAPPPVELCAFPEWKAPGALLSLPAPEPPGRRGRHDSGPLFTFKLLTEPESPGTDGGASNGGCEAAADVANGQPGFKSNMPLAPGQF

[2] = tested on: parental CHO cell line without any transfected receptors; test: ERK1/2‐phosphorylation, parent CHO cells without transfected receptors; format: cell-based, Chinese hamster; conditions: for ERK1/2-phosphorylation % PDBu: CHO cells without transfected receptors, maximal response as % of PDBu (10μM) response, mean ± s.e.m.
[3] = biological target: T2, human α1A‐adrenoceptor (Homo sapiens, UniProt P35348); test: Intracellular free calcium mobilization, CHO‐α1A cells; format: cell-based
T2 construct: expressed in transfected cells; host or cells: CHO-K1
T2 sequence (P35348 1-466): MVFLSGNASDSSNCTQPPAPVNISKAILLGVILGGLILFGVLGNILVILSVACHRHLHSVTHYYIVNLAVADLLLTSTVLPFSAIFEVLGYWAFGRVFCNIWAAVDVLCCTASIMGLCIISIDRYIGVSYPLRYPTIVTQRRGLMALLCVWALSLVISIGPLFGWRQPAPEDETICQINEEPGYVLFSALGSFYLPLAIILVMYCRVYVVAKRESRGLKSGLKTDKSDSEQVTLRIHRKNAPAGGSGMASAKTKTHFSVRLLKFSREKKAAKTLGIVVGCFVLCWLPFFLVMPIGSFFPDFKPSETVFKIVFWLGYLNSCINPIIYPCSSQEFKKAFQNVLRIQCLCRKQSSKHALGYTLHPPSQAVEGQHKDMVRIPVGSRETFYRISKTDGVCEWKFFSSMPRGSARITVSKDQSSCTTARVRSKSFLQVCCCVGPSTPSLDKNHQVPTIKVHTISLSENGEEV

[4] = biological target: T1, human α1B‐adrenoceptor; test: ERK1/2‐phosphorylation (Surefire Alphascreen), CHO‐α1B cells; format: cell-based
[5] = biological target: T3, human α1D‐adrenoceptor (full length) (Homo sapiens, UniProt P25100); test: Intracellular free calcium mobilization, CHO‐α1D cells; format: cell-based
T3 construct: human α1D‐adrenoceptor (full length) were used; expressed in transfected cells; host or cells: CHO-K1
T3 sequence (P25100 1-572): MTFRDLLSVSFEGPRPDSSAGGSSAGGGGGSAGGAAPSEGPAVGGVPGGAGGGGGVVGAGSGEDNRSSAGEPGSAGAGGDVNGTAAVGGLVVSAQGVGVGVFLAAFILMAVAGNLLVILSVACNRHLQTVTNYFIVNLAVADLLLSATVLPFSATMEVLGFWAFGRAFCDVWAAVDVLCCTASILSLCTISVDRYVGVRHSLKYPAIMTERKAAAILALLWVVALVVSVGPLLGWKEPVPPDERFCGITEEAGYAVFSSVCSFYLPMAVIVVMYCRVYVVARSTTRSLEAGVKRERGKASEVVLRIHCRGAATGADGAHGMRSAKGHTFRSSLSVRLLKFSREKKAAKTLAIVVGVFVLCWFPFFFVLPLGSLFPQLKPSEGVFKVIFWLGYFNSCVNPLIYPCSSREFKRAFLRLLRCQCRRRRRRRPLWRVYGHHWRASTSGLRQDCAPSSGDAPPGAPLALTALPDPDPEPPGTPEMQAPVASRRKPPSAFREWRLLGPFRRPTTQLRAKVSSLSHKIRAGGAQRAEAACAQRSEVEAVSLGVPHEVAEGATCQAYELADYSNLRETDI

[6] = biological target: T3, human α1D‐adrenoceptor (full length); test: ERK1/2‐phosphorylation (Surefire Alphascreen), CHO‐α1D cells; format: cell-based
[7] = tested on: parental CHO cell line without any transfected receptors; test: Forskolin‐stimulated cAMP accumulation, parent CHO cells without transfected receptors; format: cell-based, Chinese hamster; conditions: CHO cells without transfected receptors
[8] = biological target: T2, human α1A‐adrenoceptor; test: ^3H‐prazosin whole‐cell radioligand binding, CHO‐α1A cells
[9] = biological target: T1, human α1B‐adrenoceptor; test: ^3H‐cAMP accumulation, CHO‐α1B cells; format: cell-based; conditions: CHO‐α1B cells
[10] = biological target: T2, human α1A‐adrenoceptor; test: ^3H‐cAMP accumulation in the presence of 10 μM forskolin, CHO‐α1A cells; format: cell-based
[11] = biological target: T2, human α1A‐adrenoceptor; test: ^3H‐cAMP accumulation, CHO‐α1A cells; format: cell-based; conditions: CHO‐α1A cells
[12] = biological target: T2, human α1A‐adrenoceptor; test: ERK1/2‐phosphorylation (Surefire Alphascreen), CHO‐α1A cells; format: cell-based
[13] = biological target: T1, human α1B‐adrenoceptor; test: ^3H‐prazosin whole‐cell radioligand binding, CHO‐α1B cells
[14] = biological target: T3, human α1D‐adrenoceptor (full length); test: ^3H‐prazosin whole‐cell radioligand binding, CHO‐α1D cells

Compound: CNCC(O)c1ccc(O)cc1 (stereo not shown) [Synephrine]
- Intracellular calcium release % ionomycin [1]: 57.5 ± 1.9%
- ERK1/2-phosphorylation % PDBu [2]: No response
- EC50 [3]: 219 nM
- Intracellular calcium release % ionomycin [3]: 55.4 ± 1.9%
- ERK1/2‐phosphorylation % PDBu [4]: 95.1 ± 8.7%
- Intracellular calcium release % ionomycin [5]: 16.3 ± 2.9%
- ERK1/2‐phosphorylation % PDBu [6]: 14.5 ± 2.8%
- cAMP accumulation (in presence of forskolin) Log EC50 [7]: No response
- Kd [8]: 55000 nM
- cAMP accumulation % forskolin at 100 µM ([9]; response at 100 µM ligand (no EC50 given)): 23.2 ± 2.5%
- EC50 [10]: 7080 nM
- cAMP accumulation % forskolin at 100 µM ([11]; response at 100 μM ligand, no EC50 obtained): 25.4 ± 3.4%
- EC50 [12]: 603 nM
- ERK1/2‐phosphorylation % PDBu [12]: 87.4 ± 8.6%

- Intracellular calcium release % ionomycin ([1]; CHO‐α1B cells, maximal response as % of 10 µM ionomycin response): 62.5 ± 2.9%
- ERK1/2‐phosphorylation % PDBu ([4]; CHO‐α1B cells, maximal response as % PDBu response, for bi‐phasic responses the initial stimulatory part): 85.8 ± 6.0%
- cAMP accumulation % forskolin ([9]; % forskolin maximum response): 53.0 ± 7.5%
Compound: NCCc1ccc(O)c(O)c1 [Dopamine]
- ERK1/2-phosphorylation % PDBu [2]: No response
- cAMP accumulation (in presence of forskolin) Log EC50 [7]: No response

Compound: CN1C[C@H](C(=O)N[C@]2(C)O[C@@]3(O)[C@@H]4CCCN4C(=O)[C@H](Cc4ccccc4)N3C2=O)C[C@@H]2c3cccc4[nH]cc(c34)C[C@H]21 [Dihydroergotamine]
- Intracellular calcium release % ionomycin at 10 µM [1]: 6.4 ± 2.1%
- Emax ([2]; Cricetulus griseus, CHO, read-out: ERK1/2-phosphorylation % PDBu): 35.9 ± 4.2%
- EC50 ([2]; Cricetulus griseus, CHO, read-out: ERK1/2-phosphorylation Log EC50 (converted)): 2.24 nM
- ERK1/2‐phosphorylation response in parent CHO cells ([2]; untransfected cells): stimulated ERK1/2‐phosphorylation responses
- Intracellular calcium release % ionomycin at 10 µM [3]: 10.0 ± 3.1%
- ERK1/2‐phosphorylation % PDBu [4]: 50.1 ± 4.8%
- Intracellular calcium release % ionomycin [5]: No response
- Intracellular calcium release Log EC50 [5]: No response
- ERK1/2‐phosphorylation % PDBu [6]: 32.9 ± 3.5%
- cAMP accumulation (in presence of forskolin) % forskolin-stim cAMP at 10μM ([7]; response at 10μM only, EC50 not obtainable, % of forskolin-stimulated cAMP): 77.4 ± 1.9%
- Affinity selectivity ratio α1A vs α1B [8]: 50.1 fold
- Affinity selectivity ratio α1A vs α1D [8]: 26.9 fold
- Kd [8]: 2.4 nM
- Kd [13]: 120 nM
- cAMP accumulation (in presence of forskolin) Log EC50 ([10]; CHO‐α1A cells, 10 μM forskolin): No response
- cAMP accumulation (in presence of forskolin) Fold increase ([10]; CHO‐α1A cells, fold increase of the forskolin response): No response
- cAMP accumulation Log EC50 ([11]; 5 h): No response
- cAMP accumulation % forskolin ([11]; % of 10 µM forskolin response): No response
- Affinity selectivity ratio α1B vs α1D [14]: 1.9 fold
- Kd [14]: 64.6 nM
- ERK1/2‐phosphorylation % PDBu [12]: 57.2 ± 4.6%
